Measurements as given in ChEMBL document CHEMBL1148501, “Synthesis of pyrazoles and isoxazoles as potent alpha(v)beta3 receptor antagonists” (Bioorg Med Chem Lett, 2006).

Assays:
in vivo [1] = details: rat, po
in vivo [2] = details: rat

Cn1nc(CC(CC(=O)O)c2ccc3c(c2)OCO3)cc1OCCc1ccc2c(n1)NCCC2 (configuration not stated)
bioavailability (in vivo [1]): 95%
half-life (in vivo [2]): 4.9 h
